What was measured:
Type in all cases: in vivo
rice (Oryza sativa) = assay: Test C flooded paddy test plant response; details: Flood, 250 g ai/ha; scale of 0 to 100 where 0 is no effect and 100 is complete control; 13 to 15 days
Outline: (§1)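 Flooded-pot format, 3 cm water over soil maintained for the test duration; test compounds dispensed into the water at the 2-leaf stage. Greenhouse holding 13 to 15 days. Plants evaluated visually relative to untreated controls, 0 meaning no effect and 100 complete control.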

[1] = test system: barnyardgrass (Echinochloa crus-galli); assay: Test C flooded paddy test plant response; details: Flood, 250 g ai/ha; scale of 0 to 100 where 0 is no effect and 100 is complete control; 13 to 15 days
Outline: as §1

[2] = test system: ducksalad (Heteranthera limosa); assay: Test C flooded paddy test plant response; details: Flood, 250 g ai/ha; scale of 0 to 100 where 0 is no effect and 100 is complete control; 13 to 15 days
Outline: as §1

[3] = test system: small-flower umbrella sedge (Cyperus difformis); assay: Test C flooded paddy test plant response; details: Flood, 250 g ai/ha; scale of 0 to 100 where 0 is no effect and 100 is complete control; 13 to 15 days
Outline: as §1

[4] = test system: galium (catchweed bedstraw, Galium aparine); assay: Test B postemergence plant response
Outline: (§2)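 Injury was assessed visually about 10 days after treatment, scored from 0 (no effect) to 100 (complete control) by comparison with untreated controls. Test chemicals had been applied postemergence to potted plants at the one- to two-leaf stage, grown in loam soil and sand in a greenhouse.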

[5] = test system: blackgrass (Alopecurus myosuroides); assay: Test B postemergence plant response
Outline: as §2

[6] = test system: wheat (Triticum aestivum); assay: Test B pre-/postemergence plant response
Source text: (§3) Seeds of plant species selected from bamyardgrass (Echinochloa crus-galli), kochia (Kochia scoparia), ragweed (common ragweed, Ambrosia elatior), Italian ryegrass (Lolium multiflorum), large (Lg) crabgrass (Digitaria sanguinalis), giant foxtail (Setaria faberii), momingglory (Ipomoea spp.), pigweed (Amaranthus retroflexus), velvetleaf (Abutilon theophrasti), wheat (Triticum aestivum), and corn (Zea mays) were planted into a blend of loam soil and sand and treated preemergence with a directed soil spray using test chemicals formulated in a non-phytotoxic solvent mixture which included a surfactant. At the same time, plants selected from these crop and weed species and also blackgrass (Alopecurus myosuroides), and galium (catchweed bedstraw, Galium aparine) were planted in pots containing the same blend of loam soil and sand and treated with postemergence applications of test chemicals formulated in the same manner. Plants ranged in height from 2 to 10 cm and were in the one- to two-leaf stage for the postemergence treatment. Treated plants and untreated controls were maintained in a greenhouse for approximately 10 days, after which time all treated plants were compared to untreated controls and visually evaluated for injury. Plant response ratings, summarized in Table B, are based on a 0 to 100 scale where 0 is no effect and 100 is complete control. A dash (-) response means no test result.

[7] = test system: giant foxtail (Setaria faberii); assay: Test B pre-/postemergence plant response
Source text: as §3

[8] = test system: barnyardgrass (Echinochloa crus-galli); assay: Test B pre-/postemergence plant response
Source text: as §3

[9] = test system: pigweed (Amaranthus retroflexus); assay: Test B pre-/postemergence plant response
Source text: as §3

[10] = test system: ragweed (common ragweed, Ambrosia elatior); assay: Test B pre-/postemergence plant response
Source text: as §3

corn (Zea mays) = assay: Test B pre-/postemergence plant response
Source text: as §3

kochia (Kochia scoparia) = assay: Test B pre-/postemergence plant response
Source text: as §3

[11] = test system: Italian ryegrass (Lolium multiflorum); assay: Test B pre-/postemergence plant response
Source text: as §3

[12] = 125 g ai/ha, postemergence, 0 to 100 scale, 0 no effect, 100 complete control
[13] = Postemergence, 31 g ai/ha, 0 to 100 scale (0 no effect, 100 complete control)
[14] = 31 g ai/ha, Preemergence, 0 to 100 scale where 0 is no effect and 100 is complete control
[15] = Preemergence, 125 g ai/ha, 0 to 100 scale (0 no effect, 100 complete control)
[16] = 31 g ai/ha, Postemergence, 0 to 100 scale, 0 no effect, 100 complete control
[17] = Preemergence, 125 g ai/ha, 0 to 100 scale where 0 is no effect and 100 is complete control
[18] = Postemergence, 500 g ai/ha, 0 to 100 scale (0 no effect, 100 complete control)
[19] = Preemergence, 500 g ai/ha, 0 to 100 scale where 0 is no effect and 100 is complete control

Brc1cnc(Oc2ccccc2-c2ccsc2)nc1 [Compound 232]
40: Plant response rating, Pigweed [9, 12]
20: Barnyardgrass plant response rating [8, 15] | Plant response rating, Pigweed [9, 14]
10: Foxtail, Giant plant response rating [7, 15] | Plant response rating, Pigweed [9, 13]
30: Pigweed plant response rating [9, 15]
0: Rice plant response rating (rice (Oryza sativa)) | Barnyardgrass plant response rating [1] | Ducksalad plant response rating [2] | Sedge, Umbrella plant response rating [3] | Plant response rating, Galium [4, 12] | Plant response rating, Galium [4, 13] | Plant response rating, Blackgrass [5, 12] | Plant response rating, Blackgrass [5, 13] | Plant response rating, Wheat [6, 12] | Plant response rating, Wheat [6, 13] | Plant response rating, Foxtail, Giant [7, 14] | Plant response rating, Foxtail, Giant [7, 12] | Plant response rating, Foxtail, Giant [7, 13] | Plant response rating, Barnyardgrass [8, 14] | Plant response rating, Barnyardgrass [8, 12] | Plant response rating, Barnyardgrass [8, 13] | Plant response rating, Ragweed [10, 14] | Plant response rating, Ragweed [10, 12] | Plant response rating, Ragweed [10, 13] | Ragweed plant response rating [10, 15] | Plant response rating, Corn (corn (Zea mays); [12]) | Plant response rating, Corn (corn (Zea mays); [13]) | Plant response rating, Kochia (kochia (Kochia scoparia); [14]) | Plant response rating, Kochia (kochia (Kochia scoparia); [12]) | Plant response rating, Kochia (kochia (Kochia scoparia); [13]) | Kochia plant response rating (kochia (Kochia scoparia); [15]) | Plant response rating, Ryegrass, Italian [11, 14] | Plant response rating, Ryegrass, Italian [11, 12] | Plant response rating, Ryegrass, Italian [11, 13] | Ryegrass, Italian plant response rating [11, 15]

Cn1cnc(-c2ccccc2Oc2ncc(Cl)cn2)n1 [Compound 115]
0: Rice plant response rating (rice (Oryza sativa)) | Barnyardgrass plant response rating [1] | Ducksalad plant response rating [2] | Sedge, Umbrella plant response rating [3] | Plant response rating, Galium [4, 16] | Plant response rating, Galium [4, 12] | Plant response rating, Blackgrass [5, 16] | Plant response rating, Blackgrass [5, 12] | Plant response rating, Wheat [6, 16] | Plant response rating, Wheat [6, 12] | Plant response rating, Foxtail, Giant [7, 16] | Plant response rating, Foxtail, Giant [7, 14] | Plant response rating, Foxtail, Giant [7, 12] | Plant response rating, Foxtail, Giant [7, 17] | Plant response rating, Barnyardgrass [8, 16] | Plant response rating, Barnyardgrass [8, 14] | Plant response rating, Barnyardgrass [8, 12] | Plant response rating, Barnyardgrass [8, 17] | Plant response rating, Pigweed [9, 16] | Plant response rating, Pigweed [9, 14] | Plant response rating, Pigweed [9, 12] | Plant response rating, Ragweed [10, 16] | Plant response rating, Ragweed [10, 14] | Plant response rating, Ragweed [10, 12] | Plant response rating, Corn (corn (Zea mays); [16]) | Plant response rating, Corn (corn (Zea mays); [12]) | Plant response rating, Kochia (kochia (Kochia scoparia); [16]) | Plant response rating, Kochia (kochia (Kochia scoparia); [14]) | Plant response rating, Kochia (kochia (Kochia scoparia); [12]) | Plant response rating, Kochia (kochia (Kochia scoparia); [17]) | Plant response rating, Ryegrass, Italian [11, 16] | Plant response rating, Ryegrass, Italian [11, 14] | Plant response rating, Ryegrass, Italian [11, 12]

Clc1cnc(Oc2ccccc2-c2ccc(Br)s2)nc1 [Compound 181]
50: Plant response rating, Galium [4, 18] | Plant response rating, Pigweed [9, 12] | Plant response rating, Kochia (kochia (Kochia scoparia); [18])
90: Plant response rating, Pigweed [9, 18]
80: Plant response rating, Pigweed [9, 19]
30: Plant response rating, Kochia (kochia (Kochia scoparia); [12])
20: Plant response rating, Foxtail, Giant [7, 18] | Plant response rating, Barnyardgrass [8, 18]
10: Plant response rating, Galium [4, 12] | Plant response rating, Blackgrass [5, 18] | Plant response rating, Barnyardgrass [8, 12] | Plant response rating, Barnyardgrass [8, 19] | Pigweed plant response rating [9, 15] | Plant response rating, Ragweed [10, 12] | Plant response rating, Ragweed [10, 18] | Plant response rating, Corn (corn (Zea mays); [12]) | Plant response rating, Corn (corn (Zea mays); [18])
0: Rice plant response rating (rice (Oryza sativa)) | Barnyardgrass plant response rating [1] | Ducksalad plant response rating [2] | Sedge, Umbrella plant response rating [3] | Plant response rating, Blackgrass [5, 12] | Plant response rating, Wheat [6, 12] | Plant response rating, Wheat [6, 18] | Plant response rating, Foxtail, Giant [7, 12] | Foxtail, Giant plant response rating [7, 15] | Barnyardgrass plant response rating [8, 15] | Ragweed plant response rating [10, 15] | Plant response rating, Ragweed [10, 19] | Kochia plant response rating (kochia (Kochia scoparia); [15]) | Plant response rating, Kochia (kochia (Kochia scoparia); [19]) | Plant response rating, Ryegrass, Italian [11, 12] | Plant response rating, Ryegrass, Italian [11, 18] | Ryegrass, Italian plant response rating [11, 15] | Plant response rating, Ryegrass, Italian [11, 19]
40: Plant response rating, Foxtail, Giant [7, 19]

Fc1ccc(Oc2ncc(Cl)cn2)c(-c2cc(C(F)F)on2)c1Br [Compound 114]
15: Rice plant response rating (rice (Oryza sativa))
10: Plant response rating, Blackgrass [5, 16] | Plant response rating, Wheat [6, 16] | Plant response rating, Foxtail, Giant [7, 14] | Plant response rating, Barnyardgrass [8, 16] | Plant response rating, Ryegrass, Italian [11, 16]
50: Plant response rating, Corn (corn (Zea mays); [12])
70: Plant response rating, Galium [4, 16] | Plant response rating, Pigweed [9, 14] | Plant response rating, Kochia (kochia (Kochia scoparia); [16])
60: Plant response rating, Foxtail, Giant [7, 12] | Plant response rating, Ryegrass, Italian [11, 12]
20: Plant response rating, Wheat [6, 12] | Plant response rating, Foxtail, Giant [7, 16] | Plant response rating, Barnyardgrass [8, 12] | Plant response rating, Barnyardgrass [8, 17] | Plant response rating, Ragweed [10, 12] | Plant response rating, Kochia (kochia (Kochia scoparia); [14]) | Plant response rating, Kochia (kochia (Kochia scoparia); [17])
0: Barnyardgrass plant response rating [1] | Plant response rating, Barnyardgrass [8, 14] | Plant response rating, Ragweed [10, 16] | Plant response rating, Ragweed [10, 14] | Plant response rating, Ryegrass, Italian [11, 14]
40: Plant response rating, Blackgrass [5, 12]
90: Plant response rating, Kochia (kochia (Kochia scoparia); [12])
75: Ducksalad plant response rating [2] | Sedge, Umbrella plant response rating [3]
100: Plant response rating, Galium [4, 12] | Plant response rating, Pigweed [9, 16] | Plant response rating, Pigweed [9, 12]
30: Plant response rating, Foxtail, Giant [7, 17] | Plant response rating, Corn (corn (Zea mays); [16])
